Patent US4262008A, “2,4-Disubstituted 5-oxo-5H-hexahydrofuro[3,2b]pyrroles” (Beecham Group Limited, priority 1978, dated 1981)
Where two headings read alike, the source gives them in different places.

What was measured:
[1] = test system: platelet aggregation in response to collagen (human platelet-rich plasma); assay: Platelet aggregation in vitro, response to collagen; assay type: cell-based; settings: human P.R.P., 37° C., 3 min preincubation, 50% inhibition of just-maximal collagen response
Protocol: (§1) Human blood (20 ml) is drawn into a plastic syringe and immediately anti-coagulated by mixing with 0.1 volumes of 3.8% (w/v) trisodium citrate dihydrate. Platelet-rich plasma (P.R.P.) is prepared by centrifuging the anticoagulated blood of 180 g, for 12 minutes, at room temperature. Collagen "Collagen-reagent Horm" (Hormon-Chemie Munchem, Postfach 101, Germany) is dilated as necessary with 0.9% (w/v) saline and kept on ice. Adenosine 5'-diphosphate (A.D.P.) (Grade 1: sodium salt from equine muscle, Sigma.) is diluted, as necessary with 0.9% saline, from a 10 mM stock solution, pH 6.8 kept at -20° C. The compounds are dissolved freshly to 40 mM in dimethylformamide. P.R.P. is mixed with 0.1 volumes saline and 0.005 volumes compound on dimethylformamide (control) and incubated at 37° C. for 3 minutes before the addition of collagen.
(§2) Platelet aggregation in response to collagen and A.D.P. is measured photometrically (Born G.V.R., 1962, Nature, 194 927) in a Bryston aggregometer coupled to a Vitatron linear pen recorder. The concentration of collagen producing a just-maximal change in light transmittance and the concentration of A.D.P. to produce only a first-phase aggregation response are established in each control P.R.P. The concentration of compounds to inhibit these control response by 50% in each case are determined.

[2] = test system: platelet aggregation in response to A.D.P. (human platelet-rich plasma); assay: Platelet aggregation in vitro, response to A.D.P.; assay type: cell-based; settings: human P.R.P., 37° C., 3 min preincubation, 50% inhibition of first-phase aggregation response, read-out: IC50 vs. ADP
Protocol: as §1, §2

[3] = test system: 5-hydroxytryptamine induced bronchoconstriction; assay: Inhibition of 5-hydroxytryptamine induced bronchoconstriction in anaesthetised, artificially respired guinea pig (Konzett-Rossler preparation); assay type: in vivo
Protocol: 1. The compounds were examined for their ability to inhibit 5-hydroxytryptamine induced bronchoconstriction in the anaesthetised, artificially respired guinea pig (Konzett-Rossler preparation). The compounds were administered intravenously.

[4] = test system: histamine induced changes in pulmonary resistance and lung compliance; assay: Inhibition of histamine induced changes in pulmonary resistance and lung compliance in anaesthetised spontaneously respiring guinea pig; assay type: in vivo; settings: Cavia porcellus, iv
Protocol: 2. The compounds were tested for their ability to inhibit histamine induced changes in pulmonary resistance and lung compliance in the anaesthetised spontaneously respiring guinea pig. The compounds were administered intravenously.

[5] = test system: bronchoconstriction induced by an histamine aerosol; assay: Protection of conscious guinea pigs against bronchoconstriction induced by histamine aerosol (Herxheimer test); assay type: in vivo, guinea pig; settings: aerosol generated from a 100 μg/ml solution
Protocol: 3. The compounds were also examined for their ability to protect conscious guinea pigs against bronchoconstriction induced by an histamine aerosol (Herxheimer test). In these experiments the compounds were administered by aerosol administration.

IC50 ([1]; Homo sapiens, Platelet)	IC50 ([2]; Homo sapiens, Platelet)	SMILES	other results
260 nM	0.54 µM	CCOC(=O)CCCCC1CC2C(CC(=O)N2CCC(C)(O)C2CCCCC2)O1 (stereo not shown) [Example 7, 2-(5'-ethoxycarbonyl-n-butyl)-4-(3"-hydroxy-3"-cyclohexyl-n-butyl)-5-oxo-5H-hexahydro-furo[3,2b]pyrrole]	
8800 nM	35 µM	CCCCCCC(C)(O)CCN1C(=O)CC2OC(CCCCC(=O)OCC)CC21 (stereo not shown) [Example 1, 2-(4'-Ethoxycarbonyl-n-butyl)-4-(3"-hydroxy-3"-methyl-n-nonyl)-5-oxo-5H-hexahydro-furo[3,2-b]pyrrole]	ED50 ([3]; Cavia porcellus, iv, mean of 3 experiments, read-out: ED 50 against 5-hydroxytryptamine induced bronchoconstriction): 0.131 mg/kg; ED 50 range against 5-hydroxytryptamine induced bronchoconstriction ([3]; i.v., range of 3 experiments): 115 to 150 µg/kg; ED50 ([4]; lung compliance, read-out: ED 50 against compliance changes): 0.046 mg/kg; ED50 ([4]; pulmonary resistance, read-out: ED 50 against resistance changes): 0.033 mg/kg; protection against histamine challenge [5]: highly significant protection
		CCCCCCC(O)CCN1C(=O)CC2OC(CCCCC(=O)OCC)CC21 (single isomer, unassigned) [Example 4 (Higher Rf epimer), 2-(4'-ethoxycarbonyl-n-butyl)-4-(3"-hydroxy-n-nonyl)-5-oxo-5H-hexahydrofuro[3,2b]pyrrole]	IC50 [1]: 2900 nM; IC50 [2]: 7.4 µM
		CCCCCCC(O)CCN1C(=O)CC2OC(CCCCC(=O)OCC)CC21 (single isomer, unassigned) [Example 4 (Lower Rf epimer), 2-(4'-ethoxycarbonyl-n-butyl)-4-(3"-hydroxy-n-nonyl)-5-oxo-5H-hexahydrofuro[3,2b]pyrrole]	IC50 [1]: 28000 nM; IC50 [2]: 120 µM
1700 nM	4.9 µM	CCCCCC(O)CCN1C(=O)CC2OC(CCCCC(=O)OC)CC21 (stereo not shown) [Example 3, 4-(3"-Hydroxy-n-octyl)-2-(4'-methoxycarbonyl-n-butyl)-5-oxo-5H-hexahydrofuro[3,2-b]pyrrole]	
1200 nM	2.5 µM	CCOC(=O)CCCCCC1CC2C(CC(=O)N2CCC(C)(O)C2CCCCC2)O1 (stereo not shown) [Example 6, 2-(5'-ethoxycarbonyl-n-pentyl)-4-(3"-hydroxy-3"-cyclohexyl-n-butyl)-5-oxo-5H-hexahydro-furo[3,2b]pyrrole]	
17000 nM	100 µM	CCOC(=O)CCCCC1CC2C(CC(=O)N2CCC(C)(O)CC2CCCCC2)O1 (stereo not shown) [Example 5, 2-(4'-ethoxycarbonyl-n-butyl)-4-(3"-hydroxy-3"-hydroxy-3"-methyl-4"-cyclohexyl-n-butyl)5-oxo-5H-hexahydro-furo [3-2b]pyrrole]	
